We go through twelve compounds from ChEMBL document CHEMBL5291721, “A preclinical secondary pharmacology resource illuminates target-adverse drug reaction associations of marketed drugs” (Nat Commun, 2023).

Bounds are passed on as bounds.

The target in test [1] is 3',5'-cyclic-AMP phosphodiesterase 4D (Homo sapiens, UniProt Q08499). In kind it is functional.
The target of test [2] is T1, Amine oxidase [flavin-containing] A (Homo sapiens, UniProt P21397).
T1 sequence (P21397 whole entry): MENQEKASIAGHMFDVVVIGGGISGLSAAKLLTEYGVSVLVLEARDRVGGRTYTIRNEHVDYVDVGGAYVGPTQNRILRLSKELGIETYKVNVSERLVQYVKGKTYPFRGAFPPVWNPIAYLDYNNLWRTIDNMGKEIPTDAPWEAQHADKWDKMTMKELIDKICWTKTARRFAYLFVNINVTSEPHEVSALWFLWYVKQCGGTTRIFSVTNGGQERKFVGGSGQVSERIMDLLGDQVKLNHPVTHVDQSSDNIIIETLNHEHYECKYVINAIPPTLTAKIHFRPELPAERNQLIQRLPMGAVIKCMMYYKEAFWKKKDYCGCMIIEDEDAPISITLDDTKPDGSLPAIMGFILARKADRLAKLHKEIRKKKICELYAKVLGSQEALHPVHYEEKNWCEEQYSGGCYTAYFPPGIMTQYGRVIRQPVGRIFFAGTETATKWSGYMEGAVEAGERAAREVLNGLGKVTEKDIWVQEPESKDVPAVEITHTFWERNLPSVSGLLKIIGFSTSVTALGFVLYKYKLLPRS
In kind it is functional.

For test [3], the target named is Delta-type opioid receptor (Homo sapiens, UniProt P41143).
Delta-type opioid receptor, sequence (P41143 whole entry): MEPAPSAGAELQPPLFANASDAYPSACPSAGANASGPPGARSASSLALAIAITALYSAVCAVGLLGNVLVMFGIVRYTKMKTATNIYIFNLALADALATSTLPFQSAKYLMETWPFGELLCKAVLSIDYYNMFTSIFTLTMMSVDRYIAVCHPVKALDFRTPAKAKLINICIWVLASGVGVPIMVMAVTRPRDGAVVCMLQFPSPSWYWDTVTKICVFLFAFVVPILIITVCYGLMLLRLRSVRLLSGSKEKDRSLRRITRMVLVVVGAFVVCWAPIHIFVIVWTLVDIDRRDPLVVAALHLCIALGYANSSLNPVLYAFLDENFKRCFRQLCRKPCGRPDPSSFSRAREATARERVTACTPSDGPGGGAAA
For test [4], the target named is Neuronal acetylcholine receptor subunit alpha-4 (Homo sapiens, UniProt P43681).
Neuronal acetylcholine receptor subunit alpha-4, sequence (P43681 whole entry): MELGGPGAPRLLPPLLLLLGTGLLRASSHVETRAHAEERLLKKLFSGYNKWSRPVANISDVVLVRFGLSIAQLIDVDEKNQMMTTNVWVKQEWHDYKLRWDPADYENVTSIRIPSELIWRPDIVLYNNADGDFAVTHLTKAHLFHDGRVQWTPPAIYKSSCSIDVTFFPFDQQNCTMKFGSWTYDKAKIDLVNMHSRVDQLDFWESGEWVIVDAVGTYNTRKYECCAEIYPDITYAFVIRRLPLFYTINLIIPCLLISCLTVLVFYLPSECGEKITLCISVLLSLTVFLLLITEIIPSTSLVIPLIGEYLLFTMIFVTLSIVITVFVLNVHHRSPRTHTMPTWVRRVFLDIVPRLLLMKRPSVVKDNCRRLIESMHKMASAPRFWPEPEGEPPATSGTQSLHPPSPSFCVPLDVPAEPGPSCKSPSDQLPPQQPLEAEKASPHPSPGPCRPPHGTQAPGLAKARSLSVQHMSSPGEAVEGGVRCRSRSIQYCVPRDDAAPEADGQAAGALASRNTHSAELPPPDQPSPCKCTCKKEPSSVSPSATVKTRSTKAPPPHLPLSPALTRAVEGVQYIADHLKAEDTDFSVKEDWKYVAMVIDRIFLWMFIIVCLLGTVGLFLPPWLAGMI
In the next test the target is Motilin receptor (Homo sapiens, UniProt O43193).
Motilin receptor, sequence (O43193 whole entry): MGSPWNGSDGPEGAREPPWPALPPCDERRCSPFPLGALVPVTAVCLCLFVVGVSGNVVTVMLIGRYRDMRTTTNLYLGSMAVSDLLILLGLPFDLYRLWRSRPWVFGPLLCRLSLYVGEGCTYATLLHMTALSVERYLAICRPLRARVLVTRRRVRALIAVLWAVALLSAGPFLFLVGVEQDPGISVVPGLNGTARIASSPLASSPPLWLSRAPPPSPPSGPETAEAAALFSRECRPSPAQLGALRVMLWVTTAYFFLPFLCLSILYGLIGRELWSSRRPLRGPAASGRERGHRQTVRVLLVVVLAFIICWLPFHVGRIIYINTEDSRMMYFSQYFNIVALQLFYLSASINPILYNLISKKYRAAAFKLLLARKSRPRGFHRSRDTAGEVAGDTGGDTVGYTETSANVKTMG
The target in a further test is D(1A) dopamine receptor (Homo sapiens, UniProt P21728). The class given is functional, cell-based.
D(1A) dopamine receptor, sequence (P21728 whole entry): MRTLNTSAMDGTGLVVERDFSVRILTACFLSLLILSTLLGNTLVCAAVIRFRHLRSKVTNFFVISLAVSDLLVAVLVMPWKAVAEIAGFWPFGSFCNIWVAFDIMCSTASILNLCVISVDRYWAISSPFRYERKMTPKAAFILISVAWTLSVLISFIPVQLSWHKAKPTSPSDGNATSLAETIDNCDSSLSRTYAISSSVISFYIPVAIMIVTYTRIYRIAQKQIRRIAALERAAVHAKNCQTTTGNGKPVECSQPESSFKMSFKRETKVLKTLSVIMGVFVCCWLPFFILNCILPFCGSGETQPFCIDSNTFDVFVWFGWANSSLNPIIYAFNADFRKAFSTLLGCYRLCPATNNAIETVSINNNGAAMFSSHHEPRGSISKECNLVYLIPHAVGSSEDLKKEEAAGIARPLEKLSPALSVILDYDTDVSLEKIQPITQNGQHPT
Test [5] concerns the target Voltage-gated inwardly rectifying potassium channel KCNH2 (Homo sapiens, UniProt Q12809). The class given is functional. The note with it: read-out: AC50.
Another test addresses T2, Adenosine receptor A1 (Homo sapiens, UniProt P30542).
T2 sequence (P30542 whole entry): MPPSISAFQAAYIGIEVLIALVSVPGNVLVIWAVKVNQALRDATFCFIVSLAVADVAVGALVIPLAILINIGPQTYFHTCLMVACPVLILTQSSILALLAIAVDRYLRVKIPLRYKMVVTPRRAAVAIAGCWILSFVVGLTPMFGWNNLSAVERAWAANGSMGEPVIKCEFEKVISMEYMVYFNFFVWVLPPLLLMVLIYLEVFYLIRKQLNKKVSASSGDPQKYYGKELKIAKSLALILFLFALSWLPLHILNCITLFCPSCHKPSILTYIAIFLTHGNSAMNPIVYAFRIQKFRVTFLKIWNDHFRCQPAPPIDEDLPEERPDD

The target in test [6] is T3, Muscarinic acetylcholine receptor M2 (Homo sapiens, UniProt P08172).
T3 sequence (P08172 whole entry): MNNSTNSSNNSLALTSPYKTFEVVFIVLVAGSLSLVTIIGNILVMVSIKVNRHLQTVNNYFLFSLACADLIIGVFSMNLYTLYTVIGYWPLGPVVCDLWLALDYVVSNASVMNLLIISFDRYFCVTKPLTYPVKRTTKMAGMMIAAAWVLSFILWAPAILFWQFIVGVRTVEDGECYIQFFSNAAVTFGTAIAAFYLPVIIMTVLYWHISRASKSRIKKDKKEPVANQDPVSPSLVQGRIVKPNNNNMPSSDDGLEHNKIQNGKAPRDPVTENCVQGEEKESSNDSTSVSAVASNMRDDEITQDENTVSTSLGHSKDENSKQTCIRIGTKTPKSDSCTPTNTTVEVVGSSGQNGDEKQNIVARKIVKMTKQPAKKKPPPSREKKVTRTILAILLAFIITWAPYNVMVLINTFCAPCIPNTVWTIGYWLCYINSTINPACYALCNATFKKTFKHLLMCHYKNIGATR
The class given is functional, cell-based.

The target of another test is T4, Adenosine receptor A3 (Homo sapiens, UniProt P0DMS8).
T4 sequence (P0DMS8 whole entry): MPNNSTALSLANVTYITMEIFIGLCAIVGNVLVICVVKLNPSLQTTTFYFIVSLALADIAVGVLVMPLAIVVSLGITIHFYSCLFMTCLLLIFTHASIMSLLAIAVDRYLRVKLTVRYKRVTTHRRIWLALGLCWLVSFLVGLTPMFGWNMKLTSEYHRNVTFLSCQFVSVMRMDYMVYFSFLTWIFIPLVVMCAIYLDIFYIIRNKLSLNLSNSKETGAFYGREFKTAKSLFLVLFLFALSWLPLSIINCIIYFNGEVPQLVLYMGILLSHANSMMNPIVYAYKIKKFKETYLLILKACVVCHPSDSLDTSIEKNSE

In test [7] the target is T5, Alpha-2A adrenergic receptor (Homo sapiens, UniProt P08913).
T5 sequence (P08913 whole entry): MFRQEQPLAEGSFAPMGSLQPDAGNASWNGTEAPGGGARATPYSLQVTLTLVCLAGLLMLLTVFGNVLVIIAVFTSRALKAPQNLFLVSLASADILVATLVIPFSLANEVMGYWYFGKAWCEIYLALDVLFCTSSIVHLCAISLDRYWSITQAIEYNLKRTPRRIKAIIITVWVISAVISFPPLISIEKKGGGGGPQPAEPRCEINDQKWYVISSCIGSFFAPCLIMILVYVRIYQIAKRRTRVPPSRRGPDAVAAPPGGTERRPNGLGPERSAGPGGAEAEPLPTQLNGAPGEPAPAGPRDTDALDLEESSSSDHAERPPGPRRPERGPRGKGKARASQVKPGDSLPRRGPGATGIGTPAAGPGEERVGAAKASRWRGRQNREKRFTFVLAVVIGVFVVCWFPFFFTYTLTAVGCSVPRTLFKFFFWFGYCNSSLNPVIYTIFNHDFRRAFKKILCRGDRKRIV
The class given is functional, cell-based.
Further: assay procedure not described here.

3',5'-cyclic-AMP phosphodiesterase 4D, sequence (Q08499 whole entry): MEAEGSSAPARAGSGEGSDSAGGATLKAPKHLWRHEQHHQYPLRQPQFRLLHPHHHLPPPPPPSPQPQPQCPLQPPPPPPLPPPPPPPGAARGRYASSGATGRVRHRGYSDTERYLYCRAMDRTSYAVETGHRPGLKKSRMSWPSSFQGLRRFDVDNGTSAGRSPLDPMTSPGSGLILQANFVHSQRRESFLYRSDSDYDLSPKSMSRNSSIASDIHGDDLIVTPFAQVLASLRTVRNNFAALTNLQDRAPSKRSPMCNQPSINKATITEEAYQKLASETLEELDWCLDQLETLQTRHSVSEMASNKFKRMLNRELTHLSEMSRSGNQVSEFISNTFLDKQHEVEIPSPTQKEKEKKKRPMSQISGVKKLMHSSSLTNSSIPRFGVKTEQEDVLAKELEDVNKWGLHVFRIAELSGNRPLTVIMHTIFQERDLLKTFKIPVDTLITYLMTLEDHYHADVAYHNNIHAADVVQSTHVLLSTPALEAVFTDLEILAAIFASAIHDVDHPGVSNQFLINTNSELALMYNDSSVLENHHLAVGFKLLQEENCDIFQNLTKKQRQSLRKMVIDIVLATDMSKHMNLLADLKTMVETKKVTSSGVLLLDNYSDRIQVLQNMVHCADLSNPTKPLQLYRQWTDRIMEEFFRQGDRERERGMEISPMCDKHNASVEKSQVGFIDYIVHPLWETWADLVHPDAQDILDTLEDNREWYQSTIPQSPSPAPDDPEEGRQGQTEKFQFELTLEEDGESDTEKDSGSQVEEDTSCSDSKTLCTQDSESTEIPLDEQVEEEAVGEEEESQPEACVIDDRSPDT
Voltage-gated inwardly rectifying potassium channel KCNH2, sequence (Q12809 whole entry): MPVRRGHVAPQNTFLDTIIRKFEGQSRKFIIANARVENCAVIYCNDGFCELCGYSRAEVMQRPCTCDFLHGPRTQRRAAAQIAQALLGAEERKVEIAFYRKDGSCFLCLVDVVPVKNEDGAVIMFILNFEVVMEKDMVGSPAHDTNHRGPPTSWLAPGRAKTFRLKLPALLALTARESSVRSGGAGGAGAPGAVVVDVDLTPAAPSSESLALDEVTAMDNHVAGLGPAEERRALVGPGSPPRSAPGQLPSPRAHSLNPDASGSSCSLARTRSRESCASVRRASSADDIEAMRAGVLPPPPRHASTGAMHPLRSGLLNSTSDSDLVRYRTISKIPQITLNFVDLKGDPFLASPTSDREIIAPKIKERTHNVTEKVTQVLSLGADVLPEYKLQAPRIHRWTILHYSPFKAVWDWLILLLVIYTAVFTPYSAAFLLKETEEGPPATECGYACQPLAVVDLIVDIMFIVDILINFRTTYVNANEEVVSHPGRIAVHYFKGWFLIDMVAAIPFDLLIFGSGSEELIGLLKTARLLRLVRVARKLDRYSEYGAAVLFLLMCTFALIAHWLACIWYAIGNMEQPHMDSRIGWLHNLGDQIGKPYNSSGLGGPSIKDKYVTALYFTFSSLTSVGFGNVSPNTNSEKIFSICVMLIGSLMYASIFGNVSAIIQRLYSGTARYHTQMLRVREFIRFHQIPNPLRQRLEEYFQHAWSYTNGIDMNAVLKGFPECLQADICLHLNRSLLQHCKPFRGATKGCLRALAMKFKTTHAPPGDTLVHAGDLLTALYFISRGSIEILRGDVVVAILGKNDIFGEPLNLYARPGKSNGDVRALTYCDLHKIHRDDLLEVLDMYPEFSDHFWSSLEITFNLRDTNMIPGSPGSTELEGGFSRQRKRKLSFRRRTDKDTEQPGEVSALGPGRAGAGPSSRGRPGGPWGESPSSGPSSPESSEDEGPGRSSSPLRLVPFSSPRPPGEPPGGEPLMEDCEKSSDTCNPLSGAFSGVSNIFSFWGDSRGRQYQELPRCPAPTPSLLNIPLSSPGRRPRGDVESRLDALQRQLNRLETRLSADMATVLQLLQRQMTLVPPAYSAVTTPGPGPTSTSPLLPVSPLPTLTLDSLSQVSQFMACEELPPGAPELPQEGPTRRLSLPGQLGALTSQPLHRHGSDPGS

Usually AC50 stands for the midpoint of the concentration-response curve, whichever way the signal moves. `Nc1nc(NC2CC2)c2ncn([C@H]3C=C[C@@H](CO)C3)c2n1` [ABACAVIR]: the AC50 was 10 µM in [1]; over 30 µM in test [2]; over 30 µM in [3]; over 30 µM in test [4]; over 30 µM at Motilin receptor; over 30 µM at D(1A) dopamine receptor. For the same compound, the AC50 (in [5]; at Adenosine receptor A1; in test [6]; on Adenosine receptor A3; in test [7]) was over 30 µM throughout.
On to `CC(=O)NCCCS(=O)(=O)O` [ACAMPROSATE], for which the AC50 (in test [1]; in test [2]; in test [3]; in test [4]; on Motilin receptor; on D(1A) dopamine receptor) was over 30 µM each time. Besides, the half-maximal activity concentration (AC50) (in [5]; at Adenosine receptor A1; in test [6]; on Adenosine receptor A3; in test [7]) was over 30 µM throughout.
With `CCCSc1ccc2nc(NC(=O)OC)[nH]c2c1` [ALBENDAZOLE], the AC50 in [1] was over 30 µM; in [2] it was over 10 µM; in test [3] it was over 30 µM; in test [4], over 10 µM; at Motilin receptor it was over 10 µM; on D(1A) dopamine receptor it was over 10 µM. The AC50 was 10.4 µM in test [5]; over 10 µM at Adenosine receptor A1; over 10 µM in [6]; over 30 µM at Adenosine receptor A3; over 10 µM in [7].
With `CNC(=O)c1ccccc1Sc1ccc2c(/C=C/c3ccccn3)n[nH]c2c1` [AXITINIB], the AC50 (in test [1]; in test [2]; in test [3]; in test [4]; on Motilin receptor; at D(1A) dopamine receptor) was over 30 µM throughout. Moreover, the AC50 is over 30 µM in [5]; over 30 µM on Adenosine receptor A1; 4.2 µM in [6]; 4.52 µM at Adenosine receptor A3; over 30 µM in test [7].
On to `CN1C(=O)CCS(=O)(=O)C1c1ccc(Cl)cc1` (configuration not stated) [CHLORMEZANONE], for which the AC50 in [1] was over 30 µM; in [2], over 30 µM; in [3], over 30 µM; in test [4], over 10 µM; at Motilin receptor, over 10 µM; on D(1A) dopamine receptor, over 10 µM. Also, the AC50 in [5] is over 30 µM; at Adenosine receptor A1, over 10 µM; in test [6] it was over 10 µM; on Adenosine receptor A3 it was over 10 µM; in test [7], over 10 µM.
With `CN(C)/N=N/c1[nH]cnc1C(N)=O` [DACARBAZINE], the AC50 in test [1] was over 30 µM; in test [2] it was over 10 µM; in test [3], over 30 µM; in [4], over 10 µM; at Motilin receptor, over 10 µM; at D(1A) dopamine receptor, over 10 µM. In addition, the AC50 in test [5] is over 30 µM; on Adenosine receptor A1 it was over 10 µM; in [6] it was over 10 µM; at Adenosine receptor A3 it was over 10 µM; in test [7] it was over 10 µM.
In the case of `O=C1Nc2ccc(Cl)cc2[C@@](C#CC2CC2)(C(F)(F)F)O1` [EFAVIRENZ], the AC50 in [1] is 15 µM; in [2], over 30 µM; in test [3], over 30 µM; in test [4] it was over 30 µM; at Motilin receptor, over 30 µM; on D(1A) dopamine receptor, over 30 µM. Besides, the AC50 is over 30 µM in test [5]; over 30 µM on Adenosine receptor A1; over 10 µM in [6]; 6 µM at Adenosine receptor A3; over 10 µM in test [7].
`C[C@]12CCC(=O)C=C1CC[C@@H]1[C@@H]2[C@@H](O)C[C@@]2(C)[C@H]1CC[C@]2(O)C(=O)CO` [HYDROCORTISONE]: the AC50 in test [1] was over 30 µM; in test [2], over 10 µM; in test [3], over 30 µM; in [4], over 10 µM; on Motilin receptor it was over 10 µM; at D(1A) dopamine receptor it was over 10 µM. Further, the concentration at half-maximal activity (AC50) was over 30 µM in [5]; over 30 µM on Adenosine receptor A1; over 10 µM in test [6]; over 30 µM on Adenosine receptor A3; over 10 µM in test [7].
Take `O=P1(NCCCl)OCCCN1CCCl` (configuration not stated) [IFOSFAMIDE]: the AC50 (in [1]; in test [2]; in test [3]; in test [4]; on Motilin receptor; at D(1A) dopamine receptor) was over 30 µM in each case. For the same compound, the AC50 (in test [5]; on Adenosine receptor A1; in [6]; on Adenosine receptor A3; in test [7]) was over 30 µM in each case.
As to `CCC(C)n1ncn(-c2ccc(N3CCN(c4ccc(OCC5COC(Cn6cncn6)(c6ccc(Cl)cc6Cl)O5)cc4)CC3)cc2)c1=O` (configuration not stated) [ITRACONAZOLE], the AC50 is 18 µM in [1]; over 30 µM in test [2]; over 30 µM in test [3]; over 30 µM in [4]; over 30 µM on Motilin receptor; over 30 µM at D(1A) dopamine receptor. Further, the concentration at half-maximal activity (AC50) (in [5]; on Adenosine receptor A1; in test [6]; on Adenosine receptor A3; in [7]) was over 30 µM throughout.
`c1ccc([C@H]2CN3CCSC3=N2)cc1` [LEVAMISOLE]: the concentration at half-maximal activity (AC50) in [1] is over 30 µM; in [2], over 30 µM; in test [3], over 30 µM; in test [4], over 30 µM; on Motilin receptor, over 30 µM; on D(1A) dopamine receptor it was 1.6 µM. Besides, the concentration at half-maximal activity (AC50) was 18.8 µM in test [5]; over 30 µM on Adenosine receptor A1; over 30 µM in test [6]; over 30 µM on Adenosine receptor A3; over 30 µM in [7].
For `C[C@H]1CNCCc2ccc(Cl)cc21` [LORCASERIN], the AC50 (in test [1]; in [2]; in test [3]; in test [4]; on Motilin receptor; at D(1A) dopamine receptor) was over 30 µM throughout. Further, the AC50 in test [5] is 6.5 µM; on Adenosine receptor A1, over 30 µM; in [6], over 30 µM; at Adenosine receptor A3, over 30 µM; in [7], over 30 µM.
